# Measurements taken from patent US20240165089A1, “METHOD FOR TREATING MYOPIA WITH VINPOCETINE” (EYE HOSPITAL, WENZHOU MEDICAL UNIVERSITY, priority 2021, published 2024).
# Columns and labels:
# [1] = system: form deprivation myopia (FDM) guinea pig model; assay: FDM guinea pig model, systemic (gavage) administration; format: in vivo; conditions: for axial length difference between the eyes / vitreous chamber depth difference between the eyes / refraction difference between the eyes / body weight: FDM; for refraction difference between the eyes: end of treatment (2 weeks); for body weight / mean weight decrease vs solvent group: vinpocetine 50 mg/kg/d gavage
# Text: The form deprivation myopia animal model and the method for evaluating the efficacy of vinpocetine for myopia treatment used in this experiment were the same as other relevant embodiments (local administration) in this application. Among them, the establishment of a guinea pig model of form deprivation myopia (FDM) and the gavage administration were manipulated and performed referring to the published literature in the inventor's laboratory. […] On the first day of the experiment, form deprivation (FD) myopia modeling began at 8 a.m. on the guinea pigs. The form deprivation myopia model adopted the mask method. The hood was made by the inventors using a 10-inch milky white non-toxic latex balloon. The right eye of the individual guinea pig for modeling was covered by the hood (experimental eye), and the left eye was not covered by the hood (contralateral eye). FD induction was continued during the entire vinpocetine efficacy experiment cycle by gavage administration, and the hood was only briefly removed during eye testing (such as refraction testing). […] The administration route was gavage administration. […] Administration was performed once a day for 2 weeks. […] 2017). Without adding other pharmaceutical excipients or other compounds, the inventors directly and completely dissolved the vinpocetine compound powder in 0.5% methylcellulose solvent (sterile water+methylcellulose) to prepare a vinpocetine preparation (gavage liquid) at 10 mg/mL and 20 mg/mL. The overall appearance of the preparation at room temperature was clear, transparent, and uniform, with no suspended matter visible to the naked eye. The preparation process of the preparation may use conventional physical and chemical solubilization means such as heating, stirring, and pH adjustment as appropriate, and no compounds would precipitate before administration of the preparation.
# [2] = system: form deprivation myopia model of guinea pigs; assay: FDM guinea pig model, subconjunctival injection, salmeterol/tiotropium/vinpocetine; conditions: FDM, vinpocetine 1 μM alone, subconjunctival, 2 weeks
# Text: The form deprivation myopia model of guinea pigs described in the present invention was used to evaluate the efficacy. […] On the first day of the experiment, guinea pigs were subjected to form deprivation at 8 a.m. using a mask method, with the right eye covered (experimental eye) and the left eye uncovered (contralateral eye). Starting from the day of modeling, solvents or drugs for the corresponding groups were given to the experimental eyes at 9-10 a.m. every day by eyeball subconjunctival injection at an injection volume of 100 μL, once a day for 2 weeks. The refraction and axial parameters of the animals were detected before the start of the efficacy experiment and at the end of the experiment. All data collection and processing methods were the same as in other embodiments of the present invention. The statistical basis was the difference between the experimental eye and the contralateral eye of the same subject individual.
# [3] = system: form deprivation myopia (FDM) guinea pig model; assay: form deprivation myopia (FDM) guinea pig model, injection around the eyeball; format: in vivo
# Text: The form deprivation and lens-induced guinea pig myopia model is a classic and recognized myopia animal model in the field. The model can be used to evaluate the efficacy and safety of drugs for treating myopia. The construction method of the model is well known to those skilled in the art. The animal modeling and administration route in this application refer to the scientific literature previously published by this research group (Sen Zhang, Invest Ophthalmol Vis Sci. 2019 Jul. 1; 60(8):3074-3083.; Miaozhen Pan, Exp Eye Res. 2021 January; 202:108332.), specifically, this application uses the following exemplary construction method of the form deprivation and lens-induced guinea pig myopia model:
# (§1) three-week-old tricolor guinea pigs (both male and female, simulating humans aged 3-26 years old) were used and raised in the experimental animal room of Wenzhou Medical University in a 12-hour light (400-500 lux)/12-hour dark environment with free access to water and food. The myopia model adopted monocular form deprivation (FD) and lens induction (LI) modeling methods. […] In the lens induction group, a −4D lens was fixed in front of the right eye of the animal, and the left eye obtained normal vision. For the above animals, the lenses were cleaned twice a day to prevent the lenses from blurring. The animals in the experimental group were administrated at 9:00-9:30 am every day. […] The administration process for each animal was controlled in about 10 seconds. Administration began on the day of modeling, and was continuous for 2 weeks for the form deprivation group and was continuous for 1 week for the lens induction group. This experiment has been reviewed by the Experimental Animal Ethics Committee of Wenzhou Medical University.
# The inventors prepared a 5 μM (i.e., 1.75 μg/mL) vinpocetine stock solution and stored at −80° C. The solvent was physiological saline. Before administration experiment, the stock solution was diluted with physiological saline to 1 μM, 0.1 μM, and 0.01 μM, respectively. During the formulation process of vinpocetine eye drops, the solubility can be increased by using conventional physical methods such as heating and stirring, or acids can also be used to adjust the PH value to increase solubility, and finally, the PH value can be adjusted to 7.31.
# 2. Form deprivation plus drug injection group: • wearing an eye mask on one eye and injecting vinpocetine (0.01 μM: 0.1 mL/day) into the eye wearing the eye mask for 2 weeks, sample size=15; • wearing an eye mask on one eye and injecting vinpocetine (0.1 μM: 0.1 mL/day) into the eye wearing the eye mask for 2 weeks, sample size=20; • wearing an eye mask on one eye and injecting vinpocetine 1.00 μM: 0.1 mL/day) into the eye wearing the eye mask for 2 weeks, sample size=22; • 3.
# All animals in the same model efficacy experiment were measured within the same time period, and the first measurement was at 3 weeks of age, that is, before drug administration. Refractions and eyeball parameters were measured for the animals in the above FDM group before the experiment, after 1 week of administration in the experiment and after 2 weeks of administration in the experiment and for the animals in the LIM group before the experiment, after 3 days of administration in the experiment and after 7 days of administration in the experiment, respectively. The refractions were measured using an eccentric infrared photoretinoscope (EIR) built in our laboratory. Each eye was measured three times and the average was taken as the final result. The axial parameters of the guinea pig's eyeballs were measured using the A-ultrasound probe in the CinescanA/B ultrasonic diagnostic instrument (QuantelMedical, Aviso, France). The ultrasonic frequency was 11 MHz. The ultrasonic propagation speeds of different refractive media of the eyeball were set as: 1557.5 m/s for the anterior chamber, 1723.3 m/s for the lens, and 1540 m/s for the vitreous body.
# guinea pigs = assay: safety observation during local administration to young guinea pigs; format: in vivo, guinea pig
# Text: as §1
# [4] = vinpocetine 50 mg/kg gavage, 2 weeks
# [5] = vinpocetine 100 mg/kg gavage, 2 weeks
# [6] = vinpocetine 1 μM, 1 week, vs vehicle
smiles,measurement,setting,value
CCOC(=O)C1=C[C@]2(CC)CCCN3CCc4c(n1c1ccccc41)[C@@H]32 [vinpocetine],axial length difference between the eyes,[1]; [4],0.13±0.05 mm
same,vitreous chamber depth difference between the eyes,[1]; [4],0.13±0.07 mm
same,refraction difference between the eyes,[1]; vinpocetine 50 mg/kg gavage,−5.71±2.41 D
same,body weight,[1]; 1 week,188 ± 22.9 g
same,body weight,[1]; 2 weeks,210 ± 21.9 g
same,axial length difference between the eyes,[1]; [5],0.11±0.05 mm
same,vitreous chamber depth difference between the eyes,[1]; [5],0.10±0.06 mm
same,refraction difference between the eyes,[1]; vinpocetine 100 mg/kg gavage,−5.223±2.20 D
same,mean weight decrease vs solvent group,[1]; 1 week,9.9%
same,mean weight decrease vs solvent group,[1]; 2 weeks,8.4%
same,"refraction change towards negative, axial length elongation and vitreous chamber depth increase vs negative control",[2],significantly inhibited
same,refraction change towards negative and vitreous chamber depth elongation compared with the negative control group,"[3]; low-concentration vinpocetine 0.01 μM, two time points, no statistical difference",showed an inhibitory trend
same,refraction difference between the experimental eye and the contralateral eye,"[3]; vinpocetine 1 μM 0.1 mL/day peribulbar injection, 1 week",−2.44±1.88 D
same,axial length difference between the experimental eye and the contralateral eye,"[3]; vinpocetine 1 μM, 1 week",0.07±0.05 mm
same,vitreous chamber depth difference between the experimental eye and the contralateral eye,"[3]; vinpocetine 1 μM, 1 week",0.06±0.05 mm
same,inhibition rate for the axial length,[3]; [6],39.8%
same,inhibition rate for the vitreous chamber depth,[3]; [6],45.0%
same,refraction inhibition rate,[3]; [6],50.5%
same,axial length difference between the experimental eye and the contralateral eye,"[3]; vinpocetine 1 μM, 2 weeks",0.08±0.05 mm
same,inhibition rate for the axial length,"[3]; vinpocetine 1 μM, 2 weeks",48.2%
same,inhibition rate for the vitreous chamber depth,"[3]; vinpocetine 1 μM, 2 weeks",43.4%
same,refraction difference between the experimental eye and the contralateral eye,"[3]; vinpocetine 1 μM, 2 weeks",−3.36±2.21 D
same,refraction inhibition rate,"[3]; vinpocetine 1 μM, 2 weeks",50.1%
same,vitreous chamber depth difference between the experimental eye and the contralateral eye,"[3]; vinpocetine 1 μM, 2 weeks",0.09±0.05 mm
same,common clinical adverse reactions or toxic manifestations such as weight loss,"guinea pigs; guinea pig, in vivo",no individual was observed to have common clinical adverse reactions or toxic manifestations
same,allergic phenomenon,guinea pigs; local administration of vinpocetine,no allergic phenomenon
same,changes in the pupil size of the test eyes,guinea pigs; local administration of vinpocetine to young guinea pigs,No significant changes
same,ocular abnormalities,"guinea pigs; vinpocetine group, local administration",No ocular abnormalities
